This note sets out measurements from patent US8017611B2, “Pyridine and pyrazine derivatives -083” (AstraZeneca AB, priority 2007, dated 2011).

Molecules are shown by their SMILES. Marks after values point to notes of the source that are not given here.

The first experiment has as its target T1, recombinant Axl tyrosine kinase (Homo sapiens, UniProt P30530).
T1 construct: encompassing amino acids 473 to 894 of Axl; GST (N); made in house; host or cells: SF126 insect cells
T1 sequence (P30530 473-894): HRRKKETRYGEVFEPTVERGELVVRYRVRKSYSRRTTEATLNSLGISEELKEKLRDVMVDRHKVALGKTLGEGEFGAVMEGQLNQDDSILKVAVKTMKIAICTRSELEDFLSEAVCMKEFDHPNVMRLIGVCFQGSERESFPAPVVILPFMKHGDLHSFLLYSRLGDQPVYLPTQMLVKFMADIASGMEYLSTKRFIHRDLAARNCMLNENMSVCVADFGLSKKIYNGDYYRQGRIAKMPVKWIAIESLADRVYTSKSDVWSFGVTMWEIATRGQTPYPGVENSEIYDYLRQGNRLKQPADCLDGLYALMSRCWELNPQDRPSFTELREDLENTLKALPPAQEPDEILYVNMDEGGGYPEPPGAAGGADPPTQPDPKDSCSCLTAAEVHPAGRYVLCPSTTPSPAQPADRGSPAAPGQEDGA
Briefly: In vitro Axl kinase assay (AlphaScreen), Test (a). It counts as biochemical. As to conditions: Test (a); read-out: IC50 versus Axl tyrosine kinase. (In general: In Alpha technology, singlet oxygen from a donor bead excites a nearby acceptor bead.)
Usually IC50 stands for the concentration that gives 50% inhibition. As to `COc1cccc2nc(-c3cc(-c4cn(C5CCN(C)CC5)nc4CO)cnc3N)oc12` [Example 41.42], the IC50 is around 0.2 nM. On the same count and under the same terms, then `COCc1nn(C2CCNCC2)cc1-c1cnc(N)c(-c2nc3cccc(OC)c3o2)c1` [Example 62.14], with around 0.1 nM.

Still in this experiment, the particulars now being: test compound at 1 μM; first value quoted.
Take `Nc1ncc(-c2ccc(CO)cc2)cc1-c1nc2ccccc2o1` [Example 2.16]: the “% Axl tyrosine kinase inhibition at 1 μM concentration” value (“% Axl tyrosine kinase inhibition” below) was found to be 94.0%. Turning to `CN1CC(Cn2cc(-c3cnc(N)c(-c4nc5ccccc5o4)c3)cn2)C1` [Example 41.11], the “% Axl tyrosine kinase inhibition” value was determined as 74.7%. On to `CN(C)C1(CNC(=O)c2ccc(-c3cnc(N)c(-c4nc5cccnc5o4)c3)cc2)CCCCC1` [Example 45A.41], for which the “% Axl tyrosine kinase inhibition” value stood at 99.0%. As to `COc1cc(-c2cnc(N)c(-c3nc4ncccc4o3)c2)ccc1OCCCN1CCNCC1` [Example 43C.32], the “% Axl tyrosine kinase inhibition” value is listed as 99.8%.

With `CC(O)c1nn(C2CCN(C)CC2)cc1-c1cnc(N)c(-c2nc3c(C#N)cccc3o2)c1` (stereo not shown) [Example 41.41], the “% Axl tyrosine kinase inhibition” value is given as 99.7%. As for `Nc1ncc(-c2ccc(C(=O)NCC3CCCCN3)cc2)cc1-c1nc2cccnc2o1` (stereo not shown) [Example 45A.104], the “% Axl tyrosine kinase inhibition” value was 99.8%.

On to `Nc1ncc(-c2ccc(C(=O)N3CCN(Cc4ccccn4)CC3)cc2)cc1-c1nc2ncccc2o1` [Example 45B.4], for which the “% Axl tyrosine kinase inhibition” value was 99.6%. Still for that read-out and setting: then `CN1CCCC(Cn2cc(-c3cnc(N)c(-c4nc5ccccc5o4)c3)cn2)C1` (stereo not shown) [Example 27.1], with 100.0%; and `CN(C)CCN(C)C(=O)c1ccc(-c2cnc(N)c(-c3nc4cccnc4o3)c2)cc1` [Example 45A.48], with 98.3%; and `Nc1ncc(-c2ccc(S(=O)(=O)NC3CC3)cc2)cc1-c1nc2ccccc2o1` [Example 2.30], with 96.1%. As for `Nc1ncc(-c2ccc(CN3CCOCC3)cc2)cc1-c1nc2ccccc2o1` [Example 2.7], the “% Axl tyrosine kinase inhibition” value was 99.1%. Regarding `Nc1ncc(-c2ccc(C(=O)NCCN3CCOCC3)cc2)cc1-c1nc2cccnc2o1` [Example 45A.51], the “% Axl tyrosine kinase inhibition” value came to 98.5%. As for `COc1cc(-c2cnc(N)c(-c3nc4ncccc4o3)c2)ccc1OC[C@H]1CCCN1` [Example 43C.24], the “% Axl tyrosine kinase inhibition” value stood at 99.6%.

As to `Nc1ncc(-c2ccc(OCCN3CCOCC3)cc2)cc1-c1nc2ncccc2o1` [Example 43B.6], the “% Axl tyrosine kinase inhibition” value was 96.4%.

As for `CN(C)CCCNC(=O)c1ccc(-c2cnc(N)c(-c3nc4ncccc4o3)c2)cc1` [Example 10A.12], the “% Axl tyrosine kinase inhibition” value was found to be 99.0%.

Take `CN(C)CCN1CCN(C(=O)c2ccc(-c3cnc(N)c(-c4nc5cccnc5o4)c3)cc2)CC1` [Example 45A.50]: the “% Axl tyrosine kinase inhibition” value was found to be 93.7%. For `Nc1ncc(-c2ccc(C(=O)N3CCN(Cc4cccnc4)CC3)cc2)cc1-c1nc2cccnc2o1` [Example 45A.61], the “% Axl tyrosine kinase inhibition” value stood at 95.1%. Consider `CN1CCC(n2cc(-c3cnc(N)c(-c4nc5cc(Br)ccc5o4)c3)cn2)CC1` [Example 7.5], for which the “% Axl tyrosine kinase inhibition” value turned out to be 99.1%. Take `COc1cccc2nc(-c3cc(-c4cn(C5CCNCC5)nc4C)cnc3N)oc12` [Example 62.15]: the “% Axl tyrosine kinase inhibition” value is listed as 100.0%. In the case of `COc1cccc2nc(-c3cc(-c4cnn(C5CCNCC5)c4)cnc3N)oc12` [Example 38.5], the “% Axl tyrosine kinase inhibition” value is given as 100.0%. `CN(C)C(=O)CN1CCC(n2cc(-c3cnc(N)c(-c4nc5ncccc5o4)c3)cn2)CC1` [Example 53.1]: the “% Axl tyrosine kinase inhibition” value is 99.7%.

Take `Nc1ncc(-c2cnn(C3CCNCC3)c2)cc1-c1nc2ccc(F)c(F)c2o1` [Example 38.1]: the “% Axl tyrosine kinase inhibition” value is 99.5%. In the case of `CC(C)(C)OC(=O)N1CCC(C(=O)Nc2cccc(-c3cnc(N)c(-c4nc5ccncc5o4)c3)c2)CC1` [Example 11A.3], the “% Axl tyrosine kinase inhibition” value was 87.7%. In the case of `CN1CCC(n2cc(-c3cnc(N)c(-c4nc5ccccc5o4)c3)c(C(=O)N(C)C)n2)CC1` [Example 41.30], the “% Axl tyrosine kinase inhibition” value stood at 99.5%. On the same count and under the same terms, the result for `Nc1ncc(-c2ccc(OCC3CCNCC3)cc2)cc1-c1nc2ncccc2o1` [Example 43B.36] reads 98.3%; that for `Nc1ncc(-c2cnn(C3CCOCC3)c2)cc1-c1nc2ccccc2o1` [Example 27.7], 99.8%; that for `CN1CCN(CCNC(=O)c2ccc(-c3cnc(N)c(-c4nc5cccnc5o4)c3)cc2)CC1` [Example 45A.73], 96.0%. Consider `Nc1ncc(-c2cccc(N3CCCCC3)c2)nc1-c1nc2ccccc2o1` [Example 20.4], for which the “% Axl tyrosine kinase inhibition” value came out at 89.2%. As for `CC1CN(CCCOc2ccc(-c3cnc(N)c(-c4nc5ncccc5o4)c3)cc2)CC(C)N1` (stereo not shown) [Example 43B.42], the “% Axl tyrosine kinase inhibition” value stood at 96.6%.

As to `Nc1ncc(-c2cccc3ccccc23)cc1-c1nc2ccccc2o1` [Example 2.43], the “% Axl tyrosine kinase inhibition” value is given as 9.8*** %. As for `Nc1ncc(-c2ccc(C(=O)N3CCC(N4CCCC4)CC3)cc2)cc1-c1nc2cccnc2o1` [Example 45A.63], the “% Axl tyrosine kinase inhibition” value was determined as 99.1%. For `COc1cccc2nc(-c3cc(-c4cn(C5CCN(C)CC5)nc4CO)cnc3N)oc12` [Example 41.42], the “% Axl tyrosine kinase inhibition” value was 100.0%. As to `Nc1ncc(-c2ccc(C(=O)N3CCC(N4CCCC4)CC3)cc2)cc1-c1nc2ncccc2o1` [Example 45B.5], the “% Axl tyrosine kinase inhibition” value is 99.9%. Take `Nc1ncc(-c2ccc(OCCN3CCCC3)cc2)cc1-c1nc2ncccc2o1` [Example 43B.1]: the “% Axl tyrosine kinase inhibition” value came to 99.8%.

Take `Nc1ncc(-c2ccc(C(=O)N3CCC(N)CC3)cc2)cc1-c1nc2cccnc2o1` [Example 45A.107]: the “% Axl tyrosine kinase inhibition” value was 95.0%. Take `CN1CCC(n2cc(-c3cnc(N)c(-c4nc5cc(C(F)(F)F)ccc5o4)c3)cn2)CC1` [Example 7.11]: the “% Axl tyrosine kinase inhibition” value worked out at 98.1%. Regarding `Nc1ncc(-c2ccc(C(=O)N3CCCCC3CCN3CCCC3)cc2)cc1-c1nc2cccnc2o1` (stereo not shown) [Example 45A.29], the “% Axl tyrosine kinase inhibition” value amounted to 98.8%. As for `CN(C)CCNC(=O)c1cccc(-c2cnc(N)c(-c3nc4cnccc4o3)c2)c1` [Example 8A.24], the “% Axl tyrosine kinase inhibition” value was 95.6%. In the case of `Nc1ncc(-c2ccc(C(=O)N3CCC4(CCNC4)CC3)cc2)cc1-c1nc2cccnc2o1` [Example 45A.89], the “% Axl tyrosine kinase inhibition” value came out at 91.7%.

As for `COCc1nn(C2CCNCC2)cc1-c1cnc(N)c(-c2nc3cccc(OC)c3o2)c1` [Example 62.14], the “% Axl tyrosine kinase inhibition” value came out at 100.0%.

Regarding `Nc1ncc(-c2ccc(C(=O)N3CCC(CN4CCNCC4)CC3)cc2)cc1-c1nc2cccnc2o1` [Example 45A.98], the “% Axl tyrosine kinase inhibition” value was 97.6%.

For `CN(C)C(=O)CN1CCC(n2cc(-c3cnc(N)c(-c4nc5ccccc5o4)c3)cn2)CC1` [Example 53.8], the “% Axl tyrosine kinase inhibition” value turned out to be 99.9%. Same read-out and setting: the result for `Nc1ncc(-c2ccc(C(=O)NCCn3ccnc3)cc2)cc1-c1nc2cccnc2o1` [Example 45A.7] reads 97.7%; that for `Nc1ncc(-c2ccc(CO)s2)cc1-c1nc2cnccc2o1` [Example 8A.5], 96.8%; that for `Nc1ncc(-c2ccc3[nH]ncc3c2)cc1-c1nc2ccccc2o1` [Example 2.23], 87.2%. For the molecule `CN(C)c1nn(C2CCNCC2)cc1-c1cnc(N)c(-c2nc3ccccc3o2)c1` [Example 62.3], the “% Axl tyrosine kinase inhibition” value worked out at 99.9%.

Still in this experiment, the particulars now being: test compound at 1 μM; first value quoted; read-out: % Axl tyrosine kinase inhibition at 1 μM concentration.
Consider `Cc1nn(C2CCN(C(=O)OC(C)(C)C)CC2)cc1-c1cnc(N)c(-c2nc3ccccc3o2)c1` [Example 21, Tert-butyl 4-[4-[6-amino-5-(1,3-benzoxazol-2-yl)-3-pyridyl]-3-methyl-pyrazol-1-yl]piperidine-1-carboxylate], for which the inhibition at 1 µM came out at 9.7%. Same read-out and setting: the result for `Cc1nn(C2CCNCC2)cc1-c1cnc(N)c(-c2nc3c(F)cccc3o2)c1` [Example 25A, 3-(4-fluoro-1,3-benzoxazol-2-yl)-5-[3-methyl-1-(4-piperidyl)pyrazol-4-yl]pyridin-2-amine] reads 100%; that for `CNC(=O)c1cccc2nc(-c3cc(-c4cnn(C5CCNCC5)c4)cnc3N)oc12` [Example 70, 2-[2-amino-5-[1-(4-piperidyl)pyrazol-4-yl]-3-pyridyl]-N-methyl-1,3-benzoxazole-7-carboxamide], 99.9%; that for `Nc1ncc(-c2cnn(CCN3CCNCC3)c2)cc1-c1nc2ccccc2o1` [Example 32, 3-(1,3-benzoxazol-2-yl)-5-[1-(2-piperazin-1-ylethyl)pyrazol-4-yl]pyridin-2-amine], 99.9%.

Take `CN1CCN(c2ncc(-c3cnc(N)c(-c4nc5ccccc5o4)c3)s2)CC1` [Example 25.5, 3-(1,3-benzoxazol-2-yl)-5-[2-(4-methylpiperazin-1-yl)thiazol-5-yl]pyridin-2-amine]: the inhibition at 1 µM amounted to 82.9%.

The same experiment, now with this note: test compound at 30 μM.
As to `Nc1ncc(-c2cccc3ccccc23)cc1-c1nc2ccccc2o1` [Example 2.43], the “% of Axl tyrosine kinase activity inhibited at a concentration of 30 μM” value is “***the compound disclosed in Example 2.43 inhibited 57% of Axl tyrosine kinase activity at a concentration of 30 μM”.

The experiment is the same for the next values; noted with them: test compound at 30 μM; read-out: % of Axl tyrosine kinase activity inhibited at a concentration of 30 μM.
With `Cc1nn(C2CCN(C(=O)OC(C)(C)C)CC2)cc1-c1cnc(N)c(-c2nc3ccccc3o2)c1` [Example 21, Tert-butyl 4-[4-[6-amino-5-(1,3-benzoxazol-2-yl)-3-pyridyl]-3-methyl-pyrazol-1-yl]piperidine-1-carboxylate], the inhibition at 30 µM stood at 76.4%.
